The source of these data is patent publication US12564580B2, “Mitochondria-targeted isoketal/isolevuglandin scavengers and uses thereof” (Vanderbilt University, priority 2020, dated 2026).

Series [1] has as its system kidney mitochondria. The series is described as follows: Respiration of kidney mitochondria from angiotensin II-infused mice (respiratory control ratio). It counts as in vivo, mouse. As to conditions: Ang II plus mito2HOBA. The protocol:
(§1) FIGS. 13A-B show mito2HOBA reduces mPTP opening and prevents mitochondrial dysfunc¬tion. C57B1/6J mice were infused with Ang II ([…]) and mito2HOBA in the drinking water (0.1 g/L). Following 14 days of Ang II infusion the animals were sacrificed and kidneys were isolated for mitochondrial studies. Addition of CaCl2 to mitochondria above Ca2+ retention capacity led to mPTP opening and mitochondria swelling. 71 Mitochondria isolated from Ang II-infused mice had significant reduction in Ca2+ capacity due to increased mPTP opening and CypD inhibitor Cyclosporine A (CsA) rescued Ca2+ retention capacity (A). Respiratory control ratio (State 3/State 4) was measured in isolated kidney mitochondria with glutamate and malate (B). Control level is 100%. (C) Renal ATP was measured in freshly isolated tissue by luciferase-based luminescent assay. 72 Results are mean±SEM. *P<0.01 vs Sham, **P<0.01 vs Angiotensin II (n=5).
The following respiration medium was used (in mM): 125 mM KCl, 10 mM MOPS (pH 7.2), 2 mM MgCl2, 2 mM KH2PO4, 10 mM NaCl, 1 mM EGTA, 0.7 mM CaCl2, 10 mM glutamate and 2 mM malate. […] Respiratory control ratio was calculated as the rate ratio State 3 to State 4, where State 4 is the rate after ADP phosphorylation.

Series [2] relates to mouse aortic rings. The experiment in a line: Vasodilatation study of aortic rings (endothelial-dependent relaxation). It counts as in vivo. As to conditions: Ang II plus mito2HOBA. The method, then: (§2) FIGS. 12A-D show the effect of mito2HOBA supplementation on mitochondrial superoxide (A), vascular superoxide (B), endothelial nitric oxide (C) and endothelial-dependent relaxation (D) in angiotensin II-infused mice. Mitochondrial and vascular O2⋅ was measured by mitochondria-targeted superoxide probe mitoSOX (1 μM) or untargeted superoxide probe DHE (50 μM) using HPLC.46 Endothelial nitric oxide was analyzed by NO spin trap Fe(DETC)2 and ESR.47 C57B1/6J mice were infused with Ang II and mito2HOBA was provided in the drinking water (0.1 g/L). […] Results are mean±SEM. *P<0.01 vs Sham, **P<0.01 vs Ang II (n=6).
Isometric tension studies were performed on 2 mm mouse aortic rings dissected free of perivascular fat from C57B/6J mice. Studies were performed in a horizontal wire myograph (DMT, Aarhus, Denmark, models 610 M and 620 M) containing physiological salt solution with the composition of 130 mM NaCl, 4.7 mM KCl 1.2 mM MgSO4, 1.2 mM KH2PO4, 15 mM NaHCO3, 5.5 mM glucose, and 1.6 mM CaCl2. The isometric tone of each vessel was recorded using LabChart Pro v7.3.7 (AD Instruments, Australia). […] Once the vessels reach a steady state contraction, increasing concentrations of acetylcholine were administered, and the response to each concentration of drug was recorded.

Series [3] has as its system aortic superoxide. The experiment in a line: Aortic superoxide by HPLC (mitoSOX, DHE) in angiotensin II-infused mice. It counts as in vivo, mouse. The method, then:
as §2
Mouse aortic segments were loaded with DHE (50 μM) or mitochondria-targeted mitoSOX (1 μM) in KHB buffer by 30-minute incubation in a tissue culture incubator at 37° C. […] The tissue homogenate was passed through a 0.22 μm syringe filter and methanol filtrates were analyzed by HPLC according to previously published protocols. The superoxide specific product 2-hydroxyethidium was detected using a C-18 reverse-phase column (Nucleosil 250 to 4.5 mm) and a mobile phase containing 0.1% trifluoroacetic acid and an acetonitrile gradient (from 37% to 47%) at a flow rate of 0.5 ml/min. 2-Hydroxyethidium was quantified by fluorescence detector using an emission wavelength of 580 nm and an excitation of 480 nm as described previously.

Series [4] concerns kidney (renal cortex and medulla). The experiment in a line: Kidney histological analyses in LPS model.
Protocol: Three months old C57BL/6J mice (25-28 g) were supplemented with mito2HOBA (drinking water, 0.1 g/L) for 72 hours prior to LPS injection (25 μg/g). […] (C) Histopathological scores of renal injuries as described in methods section. […] Data are mean±STD *P<0.01 vs LPS (n=6), *P<0.01 vs LPS (n=10).
FIGS. 6A-H show histological analysis of cellular injury in kidneys of control, mito2HOBA supplemented, LPS-injected and LPS+mito2HOBA-treated mice. Representative sections from control mice show normal glomeruli (g), proximal tubules (P), and distal tubules (*) in the cortex (A) and medulla (B).
Kidneys were harvested from mice and placed immediately in 10% formalin. Following fixation, kidneys were washed with saline, placed in 70% ethanol, and processed in the following sequence: 70% ethanol; 80% ethanol; 95% ethanol; 100% ethanol; 100% xylene. Then kidneys were embedded in POLY/Fin paraffin (ThermoFisher). Five-μm sections were cut using a Leitz 1512 microtome and were mounted on glass slides. Sections were stained with hematoxylin and eosin and were viewed using an Olympus IX70 microscope. Images were captured with a Jenoptix Progress C12 digital camera. Histopathological scores of kidneys were measured as follows: (0) No tubular injury; (1) <10% tubules injured; (2) 10-25% tubules injured; (3) 25-50% tubules injured; (4) 50-75% tubules injured; (5) >75% tubules injured.
In series [5] the test system is renal ATP. The series is described as follows: ATP levels in kidney tissue of angiotensin II-infused mice. The format is in vivo, mouse. As to conditions: Ang II plus mito2HOBA. The method, then: as §1
ATP concentration in the kidney tissue was measured by luminescent ATP detection assay kit (Abcam; Cat #ab113849). Luminescence signals were read using a Biotek Synergy H1 plate reader. Luminescence units were calculated as μmol/mg protein based on the ATP calibration curve and protein concentration measured by the Bradford method.

The nature of series [6]: Reaction with the IsoLG analog 4-oxopentanal. It counts as physicochemical. As to conditions: % of 2HOBA itself. The source says: In order to confirm the IsoLG scavenging properties of mito2HOBA, the present inventors studied its reaction with the IsoLG analog 4-oxopentanal as the present inventors described previously. Mito2HOBA was highly reactive with 4-oxopentanal with a reaction rate constant that was about 50% of 2HOBA itself (Supplemental FIG. 1S). […] The overall rate of IsoLG scavenging in physiological conditions depends both on the rate constant and the local concentration of the scavenger (V=k*[mito2HOBA]*[IsoLG]). […] This will result in low level of mito2HOBA in cytoplasm but high mitochondrial accumulation leading to specific scavenging of IsoLG in mitochondria (FIG. 3).

The test system of series [7] is human aortic endothelial cells (HAEC). The experiment in a line: Cardiolipin oxidation in human aortic endothelial cells stimulated with angiotensin II plus TNFα (LC/MS). The format is cell-based. As to conditions: 50 nM. The protocol: FIGS. 9A and B show the effect of mito2HOBA on mitochondrial superoxide and cardiolipin oxidation in human aortic endothelial cells induced by angiotensin II plus TNFα. (A) Mitochondrial superoxide was measured by HPLC analysis of mitoSOX-superoxide specific product, mito-2-hydroxyethidium (Mito-2OH-Et+). […] (B) Cardiolipin oxidation induced by Angiotensin II+TNFα measured my LC/MS. […] Data are mean±SEM. *P<0.01 vs Control, **P<0.01 vs Angiotensin II+TNFα (n=4).
Cardiolipin oxidation in human aortic endothelial cells was measured by Liquid Chromatography-Mass Spectrometry (LC/MS) as described previously.^44 The extracted lipid fraction was separated online by UPLC using a Waters Acquity UPLC system (Waters Corp., Milford, MA). Mass Spectrometry analysis was performed on a Thermo Quantum Ultra triple quadrupole mass spectrometer (Thermo Scientific Inc., San Jose, CA, USA).
Human aortic endothelial cells (HAEC) were purchased from Lonza (Chicago, IL) and cultured in EGM-2 medium supplemented with 2% FBS but without antibiotics. On the day before the study, the FBS concentration was reduced to 1%.

Series [8] relates to complex I/complex II. As to conditions: kidney mitochondria after LPS treatment, mito2HOBA supplementation.
Protocol: Three months old C57BL/6J mice (25-28 g) were supplemented with mito2HOBA (drinking water, 0.1 g/L) for 72 hours prior to LPS injection (25 μg/g). Complex I/Complex II activity ratio is expressed as a % compared to Control (100%). […] Data are mean±STD *P<0.01 vs LPS (n=6), *P<0.01 vs LPS (n=10).
Forty C57BL/6J 3-month old mice were equally divided in four groups: Sham (Control), LPS-injected mice (LPS), mice supplemented with mito2HOBA (0.1 g/Liter) in the drinking water (mito2HOBA), and LPS-injected mice pretreated with mito2HOBA in the drinking water (LPS+mito2HOBA). […]
Mitochondrial complex I and complex II activities were evaluated after 24 hours of LPS injection as described above. […]
Respiration rates were measured using Fluorescence Lifetime Micro Oxygen Monitoring System (Instech Laboratories, Inc.). […] OXPHOS specific enzyme activities in submitochondrial particles (SMP) were measured using a Varian Cary 300 Bio UV/Vis spectrophotometer with temperature controlling cell holder. […] Complex I activity was monitored in triplicate samples as the reduction of 10 μM decylubiquinone at 272 nm by 15 μg of mitochondrial protein with 40 μM NADH. […] Complex II activity was measured by monitoring the absorbance at 600 nm during the oxidation of 50 μM DCPIP as artificial electron acceptor by 65 μM ubiquinone in presence of 2 mM KCN and 2 μg/ml rotenone and antimycin A.
The mark [9] stands for this setting: LPS plus mito2HOBA vs LPS alone.

On to `NCc1ccc(OCCCC[P+](c2ccccc2)(c2ccccc2)c2ccccc2)cc1O` [mito2HOBA], for which, in series [1], the “mitochondrial respiration supported by glutamate plus malate” value is reported as “preserved”. Moreover, in series [2], the endothelial-dependent relaxation result is recorded as “preserved”. In addition, the aortic cellular superoxide in series [3] (DHE, % compared to Sham control, Ang II plus mito2HOBA (Ang II alone 217%)) turned out to be 152%. Moreover, the “increase in aortic mitochondrial superoxide” value in series [3] (mitoSOX, Ang II plus mito2HOBA) was “completely prevented”. The renal cortex injury entry in series [4] (LPS plus mito2HOBA) is “the cortex appeared normal”. Besides, in series [4] (setting [9]), the “histopathological scores of renal injuries” value is “significant reduction in cellular injury”; the renal medulla injury entry is “the extent and degree of injury was less”. In addition, the “kidney histology, mito2HOBA alone” value in series [4] (mice supplemented with mito2HOBA without LPS) is recorded as “appeared normal”. The “decrease in renal ATP levels” value in series [5] is reported as “prevented”. Further, the “reaction rate constant with 4-oxopentanal relative to 2HOBA” value in series [6] was “about 50%”. The cardiolipin oxidation entry in series [7] is recorded as “inhibited”. For the same compound, the “complex I/complex II activity ratio” value in series [8] is “completely preserved”.
